Source: patent US10774047B2 (THE TRUSTEES OF THE UNIVERSITY OF PENNSYLVANIA, priority 2015, dated 2020)
Entries after “also recorded” stand apart in the source; their conditions may differ.

What was measured:
A375P (melanoma) cells = assay: MTT anti-proliferative assay (72 hr) in A375P cells; format: cell-based; settings: for anti-proliferative potency / activity (comparative): A375P and PANC1 cells, FIGS. 1C and 1D
Method: (§1) (A) Schematic of dimeric antimalarials (B) A375P cells were plated in a 384-well highthroughput format and treated with the quinacrine-, mefloquine- and primaquine-based compounds shown (72 hr, 1 nM-30 μM). Viability was standardized to vehicle (water) treated controls and shown are Log IC50 values calculated using GraphPad Prism. Alamar blue. (C) A375P cells were treated with the DQ compound library (72 hr, 1 nM-30 μM) MTT. (D) PANC1 cells were treated identically to (C). (E) PANC1 cells were treated with the DQ compound library as well as Lys05, Spautin and SBI-0206965 (72 hr, 3 μM). Apoptosis was assessed by Annexin-V/flow cytometry.
For MTT assays, cells were plated in 96-well plates (2,000 cells/well), allowed to adhere overnight, and subsequently treated in triplicate for 72 hours. MTT reagent (Roche) was applied, cells were solubilized and absorbance was read at 570 nm, with background subtraction at 690 nm. The clonogenic assay was performed as previously described. Briefly, cells were suspended in appropriate culture media, and plated in 6-well plates (2×10^3 cells/well). Medium was changed and drug treatment refreshed every 3-4 days for 2 weeks. Cells were subsequently stained with crystal violet and quantified.
In an attempt to improve in vivo activity, we designed a series of second-generation analogs of Lys05 to test the effect of changing each of the separate parts of the Lys05 structure on lysosomal inhibition and cytotoxicity. Replacement of the linker of Lys05 with the commercially available linker spermidine and exchanging the aromatic rings of Lys05 from CQ to the antimalarial-based heterocyclic systems primaquine (PQ), mefloquine (MQ) and quinacrine (QC) was interrogated (FIG. 1A). The dimeric antimalarial compounds were named DC (dimeric chloroquine), DM (dimeric mefloquine), DP (dimeric primaquine) and DQ (dimeric quinacrine). The dimeric compounds were named followed by three digits (m, n, r) where m signifies the number of carbons to the left of the central nitrogen, the n signifies the number of carbons on the right of the central nitrogen and the r signifies if the central nitrogen is methylated (1) or not (0). […] We generated a focused library of DQs with triamine linkers of increasing length ranging from lengths of two to eleven carbons between the QC heterocycle and the central nitrogen of the triamine linker. Both secondary and tertiary amine derivatives of each analog were generated to determine the role of central nitrogen alkylation on biological activity. A375P and PANC1 (pancreatic cancer) cells were treated with CQ, Lys05, QC and the DQ library, establishing the increase in anti-proliferative potency of DQs relative to monomeric QC. […] We observed a clear relationship between linker length and potency amongst the DQs. […] When tested in parallel to the DQs. […] PANC1 cells were treated with the panel of DQs (3 uM) as well as Spautin-1 (3 μM) and SBI-0206965 (3 μM) for 24 hours.

451Lu (melanoma) cells = assay: Bafilomycin clamp experiment (autophagic flux); format: cell-based; settings: 3 μM, with or without bafilomycin-A1, 24 hours
A375P cells [1] = assay: Galectin-3 punctae assay (lysosomal membrane permeabilization); format: cell-based; settings: 6 hours (LLOMe 3 hr, 2 mM)
Method: (§2) FIG. 3: Central nitrogen methylation status dictates DNA damage versus lysosomal membrane permeability. […] Cells were imaged with fluorescent microscopy, phospho-H2AX+ cells were scored using ImageJ software analysis and quantified to the right. (B) A375P cells were treated identical to the conditions in (A), with the addition of the positive control LLoMe (3 hr, 2 mM). Cells were subsequently stained with galectin-3 and imaged with fluorescent microscopy. The formation of galectin-3 punctae, which signify lysosomal membrane permeabilization, are pointed out with yellow arrows.
When lysosomes are healthy, galectin-3 is uniformly dispersed throughout the cell. However, when the lysosome is damaged, galectin-3 rapidly localizes to the site of damaged lysosomes, appearing as punctae and marking individual leaky lysosomes.

A375P cells [2] = assay: phospho-H2AX immunofluorescence (DNA damage); format: cell-based; settings: 6 hr, 3 μM
Method: as §2
The longer linked DQs can be separated into two classes based on central nitrogen substitution (secondary or tertiary amine)—those that localize to the nucleus and those that localize to the lysosome. We next sought to determine whether both classes of DQs cause DNA damage since quinacrine is known to intercalate DNA. […] Furthermore, the difference in DNA damage induced by unmethylated DQs versus the corresponding methylated DQs for each pair of compounds increase with increasing linker length.

[3] = tested on: 1205Lu melanoma xenografts; assay: 1205Lu melanoma xenograft model; format: in vivo, NSG mice; settings: 8 mg/kg i.p., 2 days on / 2 days off
Method: FIG. 5: DQ661 has significant single-agent in vivo activity in melanoma xenograft model. […]. Mice were randomly split into 4 arms and treated with vehicle control (water, i.p.), quinacrine (8 mg/kg, i.p.), DQ660 (8 mg/kg, i.p.) or DQ661 (8 mg/kg, i.p.). Treatments were given as shown by the black arrows, following a regimen of 2 days on treatment followed by 2 days off treatment. (C) Representative electron micrographs from melanoma xenograft tumors harvested after 2 days of treatment according to (B). (D) Average tumor volumes for each treatment arm are shown. Each point represents the mean of N=8 mice per treatment arm and the error bars represent standard error (s.e.) (C) Representative EM for tumors treated in each arm. (E) A schematic for how mice were treated in (F). […]. Mice were randomly split into 3 arms and treated with water (i.p.), DQ661 (2 mg/kg, i.p.) or DQ661 (4 mg/kg, i.p.). Treatments were give as shown by the black arrows, following a regimen of 2 days on treatment followed by 2 days […]. Tumor volume is shown. Each point represents the mean of N=8 mice per treatment arm and the error bars represent s.e. (G) Average tumor growth rate for each treatment arm are shown. (H) Protein lysate was harvested from mouse tumors at the end of the experiment and immunoblotted for LC3B, phospho-4E-BP1 T37_T65, phospho-4E-BP1 S240_S244 and Actin. Quantification of proteins standardized to control mice levels are shown to the right.
Five to seven-week old NOD-scid gamma (NSG) mice (Jackson Laboratory) were used for xenograft studies with the 1205Lu melanoma cell line. Tumor generation, tumor measurement and tumor harvesting performed as previously described (ref). For the pancreatic cancer model, five to seven-week old C57BL/6 mice (Jackson Laboratory) and maintained under pathogen-free conditions. 2×10^6 G43 cells were subcutaneously injected with an equal volume of matrigel (BD) over the right flank […] and tumors became palpable after 5-6 days. Mice were enrolled on day 6 and given Gemcitabine (120 mg/kg, i.p.). DQ661 (4 mg/kg, i.p.) was given on days 7, 8, 12, 13, 17 and 18. Perpendicular tumor diameters were measured sing electronic calipers and volume was calculated leveraging the formula L×W^2×0.5, where L is the longest dimension and W is the perpendicular dimension. All animal experiments were performed in accordance to the protocols approved by the Institute of Animal Care and Use Committee of the University of Pennsylvania.
. After 1-2 weeks, tumors were palpable and mice were treated with vehicle control (water), quinacrine (8 mg/kg), DQ660 (8 mg/kg) or DQ661 (8 mg/kg) i.p (FIG. 5A). […]. Therefore another 1205Lu xenograft experiment was performed with mice treated with either vehicle control (water, n=6) or DQ661 (2 or 4 mg/kg, n=6) for a period of 14 days (FIG. 5e, 5F).

mTORC1 = assay: Immunoblot of mTORC1 signaling and LC3B, panel of lysosomal inhibitors; settings: A375P cells; for 4E-BP1 phosphorylation: PES 10 μM, PET 10 μM, Bafilomycin A1 100 nM; for mTORC1 activity (Western blotting): DQ661 3 μM, Pepstatin A 10 μG/mL, Siramesine 8 μM
PANC1 cells = assay: Annexin V binding flow cytometry apoptosis assay; format: cell-based; settings: 3 μM, 24 hours
Method: as §1
In an attempt to improve in vivo activity, we designed a series of second-generation analogs of Lys05 to test the effect of changing each of the separate parts of the Lys05 structure on lysosomal inhibition and cytotoxicity. Replacement of the linker of Lys05 with the commercially available linker spermidine and exchanging the aromatic rings of Lys05 from CQ to the antimalarial-based heterocyclic systems primaquine (PQ), mefloquine (MQ) and quinacrine (QC) was interrogated (FIG. 1A). The dimeric antimalarial compounds were named DC (dimeric chloroquine), DM (dimeric mefloquine), DP (dimeric primaquine) and DQ (dimeric quinacrine). […]

Question: `COc1ccc2nc3cc(Cl)ccc3c(NCCN(C)CCNc3c4ccc(Cl)cc4nc4ccc(OC)cc34)c2c1` [DQ 221] was tested. Which “anti-proliferative potency / activity (comparative)” value (A375P (melanoma) cells) did it give?
Answer: same activity as monomeric QC; also recorded: potency was equal to monomeric quinacrine

Question: And the “effect on autophagic flux (LC3II/LC3I ratio with vs without bafilomycin-A1)” value (451Lu (melanoma) cells)?
Answer: autophagy inhibitors

Question: And the galectin-3 staining pattern (A375P cells [1])?
Answer: diffuse staining for galectin-3

Question: For `COc1ccc2nc3cc(Cl)ccc3c(NCCCNCCCNc3c4ccc(Cl)cc4nc4ccc(OC)cc34)c2c1` [DQ 330], which “anti-proliferative potency / activity (comparative)” value (A375P (melanoma) cells) is on record?
Answer: significant increase in anti-proliferative potency

Question: With `COc1ccc2nc3cc(Cl)ccc3c(NCCCCNCCCNc3c4ccc(Cl)cc4nc4ccc(OC)cc34)c2c1` [DQ 340] as the compound, how does the “IC50, anti-proliferative activity” value (A375P (melanoma) cells; A375P cells, FIG. 1B) read?
Answer: low nanomolar

Question: `COc1ccc2nc3cc(Cl)ccc3c(NCCCCN(C)CCCNc3c4ccc(Cl)cc4nc4ccc(OC)cc34)c2c1` [DQ 341] was tested. Which “effect on autophagic flux (LC3II/LC3I ratio with vs without bafilomycin-A1)” value (451Lu (melanoma) cells) did it give?
Answer: autophagy inhibitors

Question: Which “effect on autophagic flux (LC3II/LC3I ratio with vs without bafilomycin-A1)” value (451Lu (melanoma) cells) does the source give for `COc1ccc2nc3cc(Cl)ccc3c(NCCCCN(C)CCCCNc3c4ccc(Cl)cc4nc4ccc(OC)cc34)c2c1` [DQ 441] here?
Answer: autophagy inhibitors

Question: What does the source list for `COc1ccc2nc3cc(Cl)ccc3c(NCCCCCNCCCCCNc3c4ccc(Cl)cc4nc4ccc(OC)cc34)c2c1` [DQ 550]?
Answer: DNA damage (phospho-H2AX, γ-H2AX) (A375P cells [2]): significantly greater levels of DNA damage relative to their methylated counterparts; galectin-3 staining pattern (A375P cells [1]): diffuse staining for galectin-3

Question: Which “effect on autophagic flux (LC3II/LC3I ratio with vs without bafilomycin-A1)” value (451Lu (melanoma) cells) does the source give for `COc1ccc2nc3cc(Cl)ccc3c(NCCCCCN(C)CCCCCNc3c4ccc(Cl)cc4nc4ccc(OC)cc34)c2c1` [DQ 551] here?
Answer: autophagy inhibitors

Question: What about the galectin-3 staining pattern (A375P cells [1]) of the same compound?
Answer: punctate distribution of galectin-3

Question: How did the “DNA damage (phospho-H2AX, γ-H2AX)” value (A375P cells [2]) turn out when `COc1ccc2nc3cc(Cl)ccc3c(NCCCCCCNCCCCCCNc3c4ccc(Cl)cc4nc4ccc(OC)cc34)c2c1` [DQ 660] was run?
Answer: significantly greater levels of DNA damage relative to their methylated counterparts

Question: And the galectin-3 staining pattern (A375P cells [1])?
Answer: diffuse staining for galectin-3

Question: And the tumor growth [3]?
Answer: modest but significant growth impairment of tumors

Question: `COC(=O)[C@H](CC(C)C)NC(=O)[C@@H](N)CC(C)C` [LLOMe, L-leucyl-L-leucine methyl ester, reference compound] was tested. Which galectin-3 staining pattern (A375P cells [1]) did it give?
Answer: punctate distribution of galectin-3

Question: With `NS(=O)(=O)C#Cc1ccccc1` [PES] as the compound, how does the 4E-BP1 phosphorylation (mTORC1) read?
Answer: hyperphosphorylation of 4E-BP1

Question: With `CNC(=O)c1ccccc1Oc1nc(Nc2cc(OC)c(OC)c(OC)c2)ncc1Br` [SBI-0206965, reference compound] as the compound, how does the “anti-proliferative potency / activity (comparative)” value (A375P (melanoma) cells) read?
Answer: did not have significantly increased anti-cancer activity relative to monomeric chloroquine or monomeric quinacrine

Question: What about the “apoptosis (annexin V)” value (PANC1 cells) of the same compound?
Answer: did not induce significant levels of apoptosis

Question: How did the “mTORC1 activity (Western blotting)” value (mTORC1) turn out when `Fc1ccc(-n2cc(CCCCN3CCC4(CC3)OCc3ccccc34)c3ccccc32)cc1` [Siramesine] was run?
Answer: did not inhibit mTORC1 activity

Question: Which “anti-proliferative potency / activity (comparative)” value (A375P (melanoma) cells) does the source give for `Fc1ccc(CNc2ncnc3ccc(F)cc23)cc1` [Spautin-1, reference compound] here?
Answer: did not have significantly increased anti-cancer activity relative to monomeric chloroquine or monomeric quinacrine

Question: And the “apoptosis (annexin V)” value (PANC1 cells)?
Answer: did not induce significant levels of apoptosis

Question: For `CCN(CC)CCCC(C)Nc1c2ccc(Cl)cc2nc2ccc(OC)cc12` (centres unmarked) [quinacrine, reference compound], which “effect on autophagic flux (LC3II/LC3I ratio with vs without bafilomycin-A1)” value (451Lu (melanoma) cells) is on record?
Answer: induces autophagic flux

Question: And the galectin-3 staining pattern (A375P cells [1])?
Answer: diffuse staining for galectin-3

Question: And the tumor growth [3]?
Answer: no significant effect on tumor growth compared to vehicle control

Question: Which 4E-BP1 phosphorylation (mTORC1) does the source give for Bafilomycin here?
Answer: hyperphosphorylation of 4E-BP1

Question: How did the “mTORC1 activity (Western blotting)” value (mTORC1) turn out when Pepstatin A was run?
Answer: did not significantly affect mTORC1 activity
